Read-outs that look alike come from different tables or passages of the source.
Assay: Liquid dish neat product liquid-air partition coefficient
Format: physicochemical
[1] = class code letter within Comment Code

Row | SMILES | Log of liquid dish neat product liquid-air partition coefficient (Comment Code K/L) | Comment Code: Log of liquid dish neat product liquid-air partition coefficient (code letters K, L) | Log of liquid dish neat product liquid-air partition coefficient (Comment Code K/L) [1] | also measured
1 | C=C(C)C1CC=C(C=O)CC1 (stereo not drawn) [Material 946] | K (Log of liquid dish neat product liquid-air partition coefficient greater than or equal to −7) | – | – | –
2 | CC=Cc1ccc(O)c(OC)c1 [Material 214] | – | K (Log of liquid dish neat product liquid-air partition coefficient greater than or equal to −7) | – | –
3 | CCCCC/C=C/C=C\C(=O)OCC [Material 942] | K (Log of liquid dish neat product liquid-air partition coefficient greater than or equal to −7) | – | – | –
4 | CCCCCCCC(=O)OCCCCCC [Material 263] | – | – | K (Log of liquid dish neat product liquid-air partition coefficient greater than or equal to −7) | –
5 | CC(C)=CCC/C(C)=C\COC=O [Material 59] | – | K (Log of liquid dish neat product liquid-air partition coefficient greater than or equal to −7) | – | –
6 | CCc1ccccc1CC(C)(C)C=O [Material 356] | – | – | K (Log of liquid dish neat product liquid-air partition coefficient greater than or equal to −7) | –
7 | CC1C(C)(C)C2=C(C3OC(C)(C)OC3CC2)C1(C)C (stereo not drawn) [Material 23] | – | K (Log of liquid dish neat product liquid-air partition coefficient greater than or equal to −7) | K (Log of liquid dish neat product liquid-air partition coefficient greater than or equal to −7) | –
8 | CC(C)=CCC=C(C)C1CC=C(C)CC1 (stereo not drawn) [Material 719] | K (Log of liquid dish neat product liquid-air partition coefficient greater than or equal to −7) | – | – | –
9 | C=C(C)C1CC=C(C)C(OC(C)=O)C1 (stereo not drawn) [Material 577] | K (Log of liquid dish neat product liquid-air partition coefficient greater than or equal to −7) | – | – | –
10 | CCCC(=O)OCCc1ccccc1 [Material 831] | K (Log of liquid dish neat product liquid-air partition coefficient greater than or equal to −7) | – | – | –
11 | CC(C)=CCCC(C)=CC1OCC(C)O1 (stereo not drawn) [Material 519] | – | – | K (Log of liquid dish neat product liquid-air partition coefficient greater than or equal to −7) | –
12 | C[C@@H]1CC[C@H]2[C@@H]1[C@H]1[C@@H](CC[C@]2(C)O)C1(C)C [Material 1140] | – | K (Log of liquid dish neat product liquid-air partition coefficient greater than or equal to −7) | – | Comment Code: Log of liquid dish neat product liquid-air partition coefficient (codes K/L of the Comment Code, Table 1): K (Log of liquid dish neat product liquid-air partition coefficient greater than or equal to −7)
13 | CC(C)=C1CCC(C)(O)CC1 (stereo not drawn) [Material 318] | – | – | K (Log of liquid dish neat product liquid-air partition coefficient greater than or equal to −7) | –
14 | C=CCOCCc1ccccc1 [Material 744] | – | K (Log of liquid dish neat product liquid-air partition coefficient greater than or equal to −7) | – | –
15 | CC1=CCCC(C)=CCC(C)(C)C=CC1 [Material 706] | K (Log of liquid dish neat product liquid-air partition coefficient greater than or equal to −7) | – | – | –
16 | COc1ccccc1C=CC=O [Material 26] | – | K (Log of liquid dish neat product liquid-air partition coefficient greater than or equal to −7) | – | –
17 | CC(=O)OC(C)(C)C1CC=C(C)CC1 (stereo not drawn) [Material 687] | – | K (Log of liquid dish neat product liquid-air partition coefficient greater than or equal to −7) | – | –
18 | CCC(=O)OC(C)c1ccccc1 (stereo not drawn) [Material 96] | – | K (Log of liquid dish neat product liquid-air partition coefficient greater than or equal to −7) | – | –
19 | CCC=CCC1C(=O)CCC1CC(=O)OC (stereo not drawn) [Material 112] | – | – | K (Log of liquid dish neat product liquid-air partition coefficient greater than or equal to −7) | –
20 | C=CCCCCCCCCC(=O)OCCCC [Material 599] | K (Log of liquid dish neat product liquid-air partition coefficient greater than or equal to −7) | – | – | –
21 | CCOC(C=C(C)CCC=C(C)C)OCC [Material 521] | – | – | K (Log of liquid dish neat product liquid-air partition coefficient greater than or equal to −7) | –
22 | CC(C=O)Cc1ccc2c(c1)OCO2 (stereo not drawn) [Material 288] | – | – | K (Log of liquid dish neat product liquid-air partition coefficient greater than or equal to −7) | –
23 | CC1=CC2C(C(C)C)CCC(C)(O)C2CC1 (stereo not drawn) [Material 1046] | K (Log of liquid dish neat product liquid-air partition coefficient greater than or equal to −7) | – | – | –

Row | SMILES | Log of liquid dish neat product liquid-air partition coefficient (Comment Code K/L) | Comment Code: Log of liquid dish neat product liquid-air partition coefficient (code letters K, L) | Log of liquid dish neat product liquid-air partition coefficient (Comment Code K/L) [1] | also measured
24 | CCCCCCCCCCCCCO [Material 1090] | K (Log of liquid dish neat product liquid-air partition coefficient greater than or equal to −7) | – | – | –
25 | CC/C=C\CCOC(=O)c1ccccc1 [Material 541] | – | – | K (Log of liquid dish neat product liquid-air partition coefficient greater than or equal to −7) | –
26 | COCCOC(C)OCc1ccccc1 (stereo not drawn) [Material 768] | K (Log of liquid dish neat product liquid-air partition coefficient greater than or equal to −7) | – | – | –
27 | CCC=CCC=CC=CC(=O)OCC [Material 1000] | K (Log of liquid dish neat product liquid-air partition coefficient greater than or equal to −7) | – | – | –
28 | CC1CCCCCCCCCCCCC(=O)C1 (stereo not drawn) [Material 206] | – | K (Log of liquid dish neat product liquid-air partition coefficient greater than or equal to −7) | K (Log of liquid dish neat product liquid-air partition coefficient greater than or equal to −7) | –
29 | CC(C)=CCCC1=CCC(C#N)CC1 (stereo not drawn) [Material 660] | K (Log of liquid dish neat product liquid-air partition coefficient greater than or equal to −7) | – | – | –
30 | C=CCOC(=O)COC1CCCCC1 [Material 918] | – | K (Log of liquid dish neat product liquid-air partition coefficient greater than or equal to −7) | – | –
31 | CC1C(=O)CC2(C)CCCC(C)(C)C23CC13 (stereo not drawn) [Material 804] | K (Log of liquid dish neat product liquid-air partition coefficient greater than or equal to −7) | K (Log of liquid dish neat product liquid-air partition coefficient greater than or equal to −7) | – | –
32 | CC(C)CC(=O)OCc1ccccc1 [Material 645] | – | K (Log of liquid dish neat product liquid-air partition coefficient greater than or equal to −7) | – | –
33 | CCNC(=O)C1CC(C)CCC1C(C)C (stereo not drawn) [Material 57] | – | – | K (Log of liquid dish neat product liquid-air partition coefficient greater than or equal to −7) | –
34 | CC1OC(C)C2Cc3ccccc3C2O1 (stereo not drawn) [Material 141] | – | K (Log of liquid dish neat product liquid-air partition coefficient greater than or equal to −7) | K (Log of liquid dish neat product liquid-air partition coefficient greater than or equal to −7) | –
35 | CCC=CCC=CCCO [Material 929] | K (Log of liquid dish neat product liquid-air partition coefficient greater than or equal to −7) | – | – | –
36 | CC(=O)OCCC1=CCC2CC1C2(C)C (stereo not drawn) [Material 47] | – | – | K (Log of liquid dish neat product liquid-air partition coefficient greater than or equal to −7) | –
37 | Cc1n[nH]cc1-c1ccccc1 [Material 808] | – | K (Log of liquid dish neat product liquid-air partition coefficient greater than or equal to −7) | – | –
38 | O=C1CCCCCCCCCCCCCCO1 [Material 370] | – | – | K (Log of liquid dish neat product liquid-air partition coefficient greater than or equal to −7) | –
39 | CCC(C)C(=O)N(C)c1ccccc1 (stereo not drawn) [Material 314] | – | K (Log of liquid dish neat product liquid-air partition coefficient greater than or equal to −7) | – | –
40 | CC1(CO)CC1CC1CC2CC2(C)C1(C)C (stereo not drawn) [Material 185] | – | K (Log of liquid dish neat product liquid-air partition coefficient greater than or equal to −7) | K (Log of liquid dish neat product liquid-air partition coefficient greater than or equal to −7) | –
41 | C/C(=C\C#N)CCc1ccccc1 [Material 894] | K (Log of liquid dish neat product liquid-air partition coefficient greater than or equal to −7) | – | – | –
42 | CCCCCCCCCC(=O)OCC [Material 397] | – | – | K (Log of liquid dish neat product liquid-air partition coefficient greater than or equal to −7) | –
43 | CCCCCCCCCCOC(=O)CC [Material 471] | – | – | K (Log of liquid dish neat product liquid-air partition coefficient greater than or equal to −7) | –
44 | CCCCCCCC1(C)OCC(C)O1 (stereo not drawn) [Material 838] | – | K (Log of liquid dish neat product liquid-air partition coefficient greater than or equal to −7) | – | –
45 | CCC(C)=CCCC(C)=CC#N [Material 158] | – | – | K (Log of liquid dish neat product liquid-air partition coefficient greater than or equal to −7) | –

Reference: patent US20160090556A1, “PRODUCTS COMPRISING MALODOR REDUCTION MATERIALS” (The Procter & Gamble Company, priority 2014, published 2016)
